For this assay, the system named is CEM cells HIV-1 protection, formazan growth assay. Put plainly: NCI AIDS Antiviral Assay. Conditions: for IC50: measured here: growth of uninfected CEM cells. The essentials:
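Steps: treat uninfected and HIV-1-infected human CEM cells at five drug levels; quantify growth by soluble formazan; retest any compound reaching 50% protection; classify actives from the retest.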

The term EC50 denotes the concentration that produces a half-maximal response. Usually IC50 stands for the midpoint of a concentration-inhibition curve. Higher therefore signals a need for much substance.

Calls of active or inactive are those of the source.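 The calls were made as follows: active = compounds giving half or more protection of infected cells from virus-caused growth loss, again on retest; inactive = the rest.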 Where a SMILES comes first, the peptide text is derived from it.

As for `COc1ccc(/C=C(/C#N)c2ccc(Cl)cc2)cc1`, the EC50 was over 200 µM and the IC50 amounted to 3.98 µM.
`O=C(CCl)N1CCN(c2ccccc2)CC1`: the EC50 is over 1050 µM and the IC50 stood at 1.2 µM.
With `CC12C=C[C@]3(CC[C@@H]4[C@@](C)(CO)CCC[C@]4(C)C3CC1)C2` (stereo partly drawn), the result was inactive.
With `O=S(=O)(O)c1cc(O)c2c(O)cc(S(=O)(=O)O)c(N=Nc3ccc(/C=C/c4ccc(N=Nc5c(S(=O)(=O)O)cc(O)c6c(O)cc(S(=O)(=O)O)cc56)cc4S(=O)(=O)O)c(S(=O)(=O)O)c3)c2c1`, the EC50 is 15.5 µM and the IC50 was 75.9 µM.
On the same counts, the results for `CCOC(=O)/C(=C/c1ccc(C)cc1)C(=O)c1ccccc1` are over 24.5 µM and 15.1 µM.
On the same counts, the results for `CCN(CC)CC(C(=O)Nc1c(C)cccc1C)/C(C)=N\NC(=S)NN` (stereo not drawn) are over 35.5 µM and over 35.5 µM.
On the same counts, the results for `COC(=O)C1(Cc2ccc3c(c2)CCC3)Cc2cc3c(cc2C1=O)CCC3` (stereo not drawn) are over 200 µM and 30.9 µM.
As to `Cc1ccc(SCC(CF)OC(C)n2cnc3c(=O)[nH]c(N)nc32)cc1` (stereo not drawn), the EC50 is over 200 µM and the IC50 amounted to 74.1 µM.
Taken in the same sequence, the figures for `C/C(N)=N/OCc1nc(C)no1` were over 200 µM and over 200 µM.
On the same counts, the results for `CCOC(=O)C1(N=O)CCCCC1=O` (stereo not drawn) are over 200 µM and over 200 µM.
Taken in the same sequence, the figures for `Oc1cccc2c1NC1=C(CCC/C1=C\c1ccccc1)C2` were over 9.33 µM and over 9.33 µM.
With `c1ccc2c(c1)ncn2CCn1ccnc1`, the EC50 was over 200 µM and the IC50 is over 200 µM.
As for `O=[N+]([O-])C1(C[Se]c2cccc(C(F)(F)F)c2)CCCCC1`, the result was inactive.
`N#Cc1c(C#N)c(-c2ccco2)n(-c2ccccc2)c1N`: the EC50 is over 200 µM and the IC50 was over 200 µM.
With `CC(C)CCC[C@@H](C)C1CCC2[C@@H]3CCC4C[C@H](CCC=C(c5cc(Cl)c(O)c(C(=O)O)c5)c5cc(Cl)c(O)c(C(=O)O)c5)CC[C@]4(C)C3CC[C@@]21C` (stereo partly drawn), the EC50 was 35.5 µM and the IC50 was over 200 µM.
As to `C[Si](C)(C)C#CCOC=C1CC1`, the outcome was inactive.
As to `CSc1nc(=O)c(C#N)c(-c2ccccc2)n1C1OC(COC(C)=O)C(OC(C)=O)C(OC(C)=O)C1OC(C)=O` (stereo not drawn), the EC50 was over 200 µM and the IC50 came out at 93.3 µM.
Taken in the same sequence, the figures for `CSC(SC)=C(C(=O)c1ccc(Cl)cc1)n1c(=O)sc2cc(Br)ccc21` were over 200 µM and 12.3 µM.
`Cc1cc2[n-]c1/C=c1\[n-]/c(c(CCC(=O)O)c1C)=C\c1[n-]c(c(C)c1CCC(=O)O)/C=c1/cc(C)/c([n-]1)=C/2.[Co]`: the EC50 is over 24 µM and the IC50 is over 24 µM.
On to `S=C(SSSSC(=S)N1CCCCC1)N1CCCCC1`, for which the EC50 is over 10.5 µM and the IC50 came out at 2.14 µM.
As to `Cc1cn(C2CC(N=[N+]=[N-])C(COC(=O)C3CCC(=O)N3)O2)c(=O)[nH]c1=O` (stereo not drawn), the outcome was active and the IC50 was found to be 49 µM.
Consider `CCOC(=O)C(Cc1c2ccccc2cc2ccccc12)(NC(C)=O)C(=O)OCC`, for which the EC50 was over 200 µM and the IC50 is over 200 µM.
Take `O=C1[C@@H]2C(c3c(Cl)cccc3Cl)=NO[C@@H]2C(=O)N1c1ccc(Cc2ccc(N3C(=O)[C@H]4C(c5c(Cl)cccc5Cl)=NO[C@H]4C3=O)cc2)cc1`: the EC50 was over 35.5 µM and the IC50 is over 35.5 µM.
Turning to `O=P(c1ccccc1)(c1ccccc1)C(NCc1ccccc1)c1ccc(F)cc1` (stereo not drawn), the EC50 is over 200 µM and the IC50 stood at 12.9 µM.
In the case of `O=[N+]([O-])c1cc(C(F)(F)F)ccc1S(=O)(=O)N[C@@H]1CCCC[C@H]1NS(=O)(=O)c1ccc(C(F)(F)F)cc1[N+](=O)[O-]`, the EC50 is over 200 µM and the IC50 came to 3.98 µM.
`C=C1c2nc3ccccc3n2C=C(c2ccccc2)N1c1ccccc1`: the EC50 was over 200 µM and the IC50 was determined as 3.98 µM.
For `O=C1OC(C(=O)O)c2ccc3c(c21)OCO3` (stereo not drawn), the EC50 was over 398 µM and the 50% inhibitory concentration (IC50) is over 398 µM.
For `NS(=O)(=O)c1ccc(C(=O)O)cc1`, the EC50 is over 200 µM and the IC50 was over 200 µM.
Regarding `Oc1ccccc1-c1nn2c(CCCCCCCCc3nnc4sc(-c5ccccc5O)nn34)nnc2s1`, the EC50 is over 200 µM and the IC50 was found to be 12 µM.
As to `CN1c2ccccc2C(=O)NC12CCN(CC1COc3ccccc3O1)CC2` (stereo not drawn), the EC50 was over 200 µM and the IC50 was determined as 89.1 µM.
On the same counts, the results for `CCOC(=O)/C(=C/c1ccc(C(=O)OC)cc1)N(CC)CC` are over 427 µM and 67.6 µM.
On the same counts, the results for `O=c1[nH]c2nncn2c2ccccc12` are over 200 µM and over 200 µM.
For `O=C(CCCCCCCCC(=O)N1C(=O)CC(=O)N(c2ccccc2)C1=S)N1C(=O)CC(=O)N(c2ccccc2)C1=S`, the EC50 is over 200 µM and the IC50 was 123 µM.
Taken in the same sequence, the figures for `c1cnc2c(c1)Nc1cnncc1S2` were over 200 µM and over 200 µM.
On the same counts, the results for `COc1ccc(C2=Nn3c(nc4sc5c(c4c3=O)CCCC5)SC2)cc1` are over 200 µM and over 200 µM.
In the case of `CCOc1ncnc2c1ncn2C1OC(CO)CC1F` (stereo not drawn), the EC50 was over 178 µM and the IC50 is over 178 µM.
Turning to `COC(=O)[C@H](Cc1ccc(O)cc1)NC(=O)[C@H](Cc1ccc(O)cc1)NC(=O)OC(C)(C)C` (HELM PEPTIDE1{[CC(C)(C)OC(=O)[*:2]].Y.Y.[CO[*:1]]}$$$$V2.0), the EC50 was over 200 µM and the 50% inhibitory concentration (IC50) came out at 93.3 µM.
Turning to `Nc1ccc2c(c1)CC1c3ccccc3C(C2)c2ccccc21`, the result was inactive.
Turning to `COc1cc2c(cc1O)C1Cc3cc(O)c(OC)cc3C(C2)N1C` (stereo not drawn), the EC50 was over 759 µM and the IC50 is 49 µM.
Consider `CCc1cc2c(O)c(c1)Cc1cc(CC)cc(c1O)Cc1cc(CC)cc(c1O)Cc1cc(CC)cc(c1O)Cc1cc(CC)cc(c1O)Cc1cc(CC)cc(c1O)Cc1cc(CC)cc(c1O)C2`, for which the EC50 was over 10 µM and the IC50 is over 10 µM.
`CC(OC1C(N)C(O)OC(CO)C1O)C(=O)O` (stereo not drawn): the result was inactive.
Consider `Oc1ccc(/C=C/c2ccc(O)c(O)c2)cc1O`, for which the EC50 is over 200 µM and the IC50 amounted to 14.5 µM.
On to `c1ccc(N=C2SC(=NC3CCCCC3)N(C3CCCCC3)C2=Nc2ccccc2)cc1`, for which the EC50 was over 200 µM and the IC50 was over 200 µM.
For the compound `CC(C)C1=CC2=C(C(=O)C1=O)C13CCCC(C)(C)C1CC2OC3=O` (stereo not drawn), the EC50 is over 79.4 µM and the IC50 turned out to be 28.2 µM.
On the same counts, the results for `N#Cc1nc(C2OC(COC(=O)c3ccccc3)C(OC(=O)c3ccccc3)C2OC(=O)c2ccccc2)oc1N` (stereo not drawn) are over 18.2 µM and 9.77 µM.
Taken in the same sequence, the figures for `O=C(c1ccc(Cl)cc1)N(C(=O)N1CCCCC1)c1ccccc1` were over 200 µM and 81.3 µM.
For `CC(=O)N1N=C(c2ccc3ccccc3c2O)CC1c1ccc(N(C)C)cc1` (stereo not drawn), the EC50 is over 50.1 µM and the half-maximal inhibitory concentration (IC50) is over 50.1 µM.
Consider `CC(=O)Nc1cc2cc(N=CN(C)C)ccc2oc1=O`, for which the EC50 is over 263 µM and the IC50 worked out at 148 µM.
As for `Cc1ccc2c(c1)C(=O)C(Cc1ccccc1C(=O)O)C2` (stereo not drawn), the EC50 was over 200 µM and the IC50 came out at 178 µM.
